Test [1] has as its system E. coli MC4100 and MC-RG1 cells. In words: Detection of ribosome assembly defects: growth (A650) and EGFP/mCherry fluorescence time course in 96-well plates. Type of test: cell-based. Particulars: 30° C., 96-well plate. The source says: Monitoring biogenesis and assembly of ribosomal subunits also allows the detection of abnormalities in ribosome biogenesis and assembly processes. […] Chloramphenicol primarily binds to the large subunit and thereby inhibits the peptidyl transfer reaction. Alongside a resulting shut-down of protein synthesis, accumulating precursor particles of both ribosomal subunits have been observed. Therefore, treatment of cells with chloramphenicol causes precursor accumulation and assembly defects of ribosomal subunits. E. coli MC4100 and MC-RG1 cells were transferred to 96-well plates and incubated at 30° C. in a plate reader. After one hour, wild-type and reporter cells were treated with increasing amounts of chloramphenicol and incubation was continued for another six more hours. A650 values, EGFP and mCherry specific fluorescence intensities were automatically detected. In the absence of chloramphenicol, the growth curve of the reporter strain reached a maximum A650 of 0.5. […] In vivo fluorescence recordings of the E. coli MC4100rp/S-egfp,rpsB-mcherry-ΔygdP cells growing in 96-well plates were performed and fluorescent signals measured. EGFP/mCherry fluorescence intensity ratios differed clearly when comparing MC4100rp/S-egfp,rpsB-mcherry (RN55b) with MC4100rplS-egfp,rpsB-mcherry-ΔygdP reporter strains. […] The overall decreased EGFP/mCherry fluorescence ratio values of the knock-out strain compared to the RN55b reporter strain are caused by proportional lower EGFP fluorescence intensities. In summary, fluorescence recordings of reporter strains are suitable to detect changes in the level of ribosomal subunits, e.g. due to biogenesis defects.
Cells grown to stationary phase were diluted to an OD600 of 0.05 and transferred into 96-well plates, such that each well contained an initial volume of 100 μl. […] Cells were further incubated in the plate reader for several hours and fluorescence as well as A650 data were collected every 10 minutes. Mean values were calculated and MC4100 fluorescence background values were subtracted from the reporter strain values.

Another test concerns MCrg* cells. In words: Probing MCrg* with ribosome-targeting antibiotics: whole-cell growth and mAzami/mCherry fluorescence ratio. In kind it is cell-based, E. coli. As for the experimental part: (§1) Whole-cell analyses (A-B): MCrg* cells were cultured in at 25° C. in M9 medium for 7 hours in the absence and presence of antibiotics, as indicated. Samples were taken every hour. (A) OD600 values were determined and (B) mAzami and mCherry fluorescence emission were detected and ratios were calculated. Fluorescence ratios of MCrg* were normalized to 1. Exemplary growth curves are given and fluorescence ratios are means from three independent experiments; error bars show s.d. Analyses of isolated ribosomal particles (C-H and J-M): Sucrose density gradient (10-25%) centrifugation profiles from (C) control cells with no antibiotic (none), (D) chloramphenicol (Cam), (E) erythromycin (Ery), (F) kanamycin (Kan) and (G) neomycin (Neo) treated cells. Sucrose gradient fractions from (C) to (G) were analyzed for fluorescence by a micro plate reader. A254 profiles and fluorescence bar charts were superimposed for (H) control cells with no antibiotic (none), (J) chloramphenicol (Cam), (K) erythromycin (Ery), (L) kanamycin (kan) and (M) neomycin (Neo) treated cells. Cells in presence and absence of antibiotics were cultured in LB medium at 25° C. for 3 hours before subsequent polysome analysis. Left shifted peaks of the large subunit are indicated by horizontal arrows, abnormal portions of the small subunit by vertical arrows; Bars with black lines: normalized mCherry fluorescence; Black bars: normalized mAzami fluorescence. Fluorescence was normalized to the first polysome peak (“disome”) where subunits are present in 1:1 ratio.
(§2) Using MCrg*, it was investigated, whether treatment of cells with ribosome targeting antibiotics results in assembly defects of both ribosomal subunits. The antibiotics tested were chloramphenicol, erythromycin and neomycin, which are known to cause assembly defects of both ribosomal subunits, and kanamycin, which was so far not investigated for its potential to cause ribosome assembly defects. MCrg* cells were cultured in M9 medium for seven hours in the absence or presence of chloramphenicol (7 μg/ml), erythromycin (100 μg/ml), kanamycin (7 μg/ml) or neomycin (7 μg/ml). […] Treatment with chloramphenicol, by contrast, led to an increased fluorescence ratio, with a maximum of 1.20 after 7 hours. […] This hypothesis was tested by analyzing ribosome profiles obtained from MCrg* cells that grew in the presence of the antibiotics or without (FIG. 15C-G). […] The 70S peak and the polysomes (not shown) are reduced in intensity since no chloramphenicol was added prior to harvesting to prevent 70S run off.

The test system of test [2] is ribosomal subunits of MCrg* cells. In words: Sucrose density gradient ribosome profiles (A254 and fluorescence of fractions) of antibiotic treated MCrg* cells. Type of test: cell-based, E. coli. Particulars: for 30S peak region in A254 ribosome profile / 50S peak in A254 ribosome profile: cells cultured with antibiotic in LB medium at 25° C. for 3 hours, 10-25% sucrose gradient; for green (mAzami, large subunit) fluorescence in overlay of A254 and fluorescence profiles: sucrose gradient fractions, micro plate reader. As for the experimental part: as §1, §2
When focusing on the overlay diagrams (combining A254 and fluorescence read outs) (FIG. 15H, J-M), ribosome profiles from non treated cells are basically congruent (FIG. 15H). […] These peaks of green fluorescence presumably represent defective assembly intermediates of the large subunit that are caused by all the antibiotics used in this study, but to different extend. […] To analyze eventual defects of the small subunit in more detail, the red fluorescence profiles were aligned and the one derived from non treated cells was compared with all the others obtained from antibiotic treated cells. […] A more thorough analysis including quantitation of the 16S and 23S rRNA within the sucrose fractions confirmed the presence of assembly intermediates.
E. coli cells were inoculated from stationary cultures and incubated until mid-logarithmic phase (OD600=0.6-0.8). In order to record polysome profiles, cells were sedimented, resuspended and lysed. After centrifugation, lysates of 10 A260 units were loaded onto 5-45% sucrose gradients for polysome profiles or 10-40% gradients for subunit separation. Ultracentrifugation was performed at 41.000 rpm (3 h; polysome profiles) or 23.000 rpm (16 h, subunit separation). Ribosomal components in the gradients were analyzed by recording the A254 values and collecting 200 μl and 50 μl fractions, respectively, that were later examined in 96-well plates on fluorescence by using a plate reader.

Take `O=C(N[C@H](CO)[C@H](O)c1ccc([N+](=O)[O-])cc1)C(Cl)Cl` [chloramphenicol]: the “concentration above which cells did not grow any further” value in test [1] (added after one hour, six more hours incubation) is listed as “higher than 15.5 μM”. In addition, the “cell growth (A650)” value in test [1] (increasing amounts added after one hour, six more hours incubation) is listed as “dosedependent reduction of cell growth”. Besides, in test [1] (increasing concentrations), the “EGFP and mCherry fluorescence” value was “decreased with increasing concentrations”. Also, the “cell growth (OD600)” value with MCrg* cells (M9 medium, seven hours, 25° C., chloramphenicol 7 μg/ml, erythromycin 100 μg/ml, kanamycin 7 μg/ml, neomycin 7 μg/ml) is reported as “strongest growth defects”. Also, the “normalized fluorescence ratio (mAzami/mCherry), maximum” value with MCrg* cells (chloramphenicol 7 μg/ml, after 7 hours, untreated MCrg* normalized to 1) amounted to 1.20. In test [2], the “30S peak region in A254 ribosome profile” value is reported as “additional peak (left-lateral of 30S)”; the “50S peak in A254 ribosome profile” value was “reduced and left shifted 50S peaks”; the “green (mAzami, large subunit) fluorescence in overlay of A254 and fluorescence profiles” value (from here on “green”) is “portion of green fluorescence within the region of the 30S peak”.
In the case of `CC[C@H]1OC(=O)[C@H](C)[C@@H](O[C@H]2C[C@@](C)(OC)[C@@H](O)[C@H](C)O2)[C@H](C)[C@@H](O[C@@H]2O[C@H](C)C[C@H](N(C)C)[C@H]2O)[C@](C)(O)C[C@@H](C)C(=O)[C@H](C)[C@@H](O)[C@]1(C)O` [erythromycin], in the test on MCrg* cells (erythromycin 100 μg/ml, after 5 hours, untreated MCrg* normalized to 1), the “normalized fluorescence ratio (mAzami/mCherry)” value was 0.95. In test [2], the “30S peak region in A254 ribosome profile” value is on record as 30S peak had a shoulder on the left; the “50S peak in A254 ribosome profile” value was “reduced and left shifted 50S peaks”; the “green” value was “portion of green fluorescence within the region of the 30S peak”.
With neomycin, the “change in the fluorescence ratio (mAzami/mCherry)” value in the test on MCrg* cells (7 μg/ml, seven hours time course) is on record as “did not show a significant change in the fluorescence ratio”. In test [2], the “30S peak region in A254 ribosome profile” value is listed as “additional peak on the left of the 30S peak”; the “50S peak in A254 ribosome profile” value is “slight reduction and left shift of the 50S peak”; the “green” value is recorded as “green fluorescent peaks of weaker intensity but at similar positions within the profile”.

The record behind these values is patent US9708602B2, “Screening for inhibitors of ribosome biogenesis” (priority 2013, dated 2017).
